Source: patent publication US6863895B2, “Mycobacterial sulfation pathway proteins and methods of use thereof” (priority 2001, dated 2005)

How the values were obtained:
[1] = tested on: E. coli CysC (JM81A complemented with M. tuberculosis CysC); assay: microbe, parasite or virus in culture; assay type: cell-based; details: Escherichia coli, read-out: percent inhibition of growth
[2] = tested on: E. coli BioB (JM81A control strain containing the BioB gene); assay: microbe, parasite or virus in culture; assay type: cell-based; details: Escherichia coli, 25 μg/mL of compound, read-out: percent inhibition of growth
[3] = tested on: E. coli CysH (JM81A complemented with M. smegmatis CysH); assay: microbe, parasite or virus in culture; assay type: cell-based; details: Escherichia coli; E. coli CysH strain; 25 μg/mL of compound; read-out: percent inhibition of growth
APS kinase of E. coli = APS kinase of E. coli (Escherichia coli, UniProt P0A6J1); details: cited from earlier work
APS kinase of E. coli, sequence (P0A6J1 whole entry): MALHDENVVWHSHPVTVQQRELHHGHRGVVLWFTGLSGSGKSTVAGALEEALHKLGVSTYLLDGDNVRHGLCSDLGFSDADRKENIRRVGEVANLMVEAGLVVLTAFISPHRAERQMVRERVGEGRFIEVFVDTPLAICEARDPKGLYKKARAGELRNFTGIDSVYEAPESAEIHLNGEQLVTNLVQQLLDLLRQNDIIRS

[4] = target: T1, M. tuberculosis CysC (APS kinase) (Mycobacterium tuberculosis, UniProt P9WNM5); assay type: biochemical
T1 construct: made in house; host or cells: E. coli BL21 STAR, plasmid pET28b(+)CysC
T1 sequence (P9WNM5 442-614 limits assumed): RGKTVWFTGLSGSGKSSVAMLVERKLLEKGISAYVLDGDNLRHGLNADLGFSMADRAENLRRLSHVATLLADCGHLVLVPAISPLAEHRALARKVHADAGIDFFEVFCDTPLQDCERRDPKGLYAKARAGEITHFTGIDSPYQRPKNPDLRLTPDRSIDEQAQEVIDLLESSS

Question: For Nc1ccc(S(=O)(=O)Nc2cnc3ccccc3n2)cc1, which inhibition at 25 µg/mL [1] is on record?
Answer: 94%

Question: What about the inhibition at 25 µg/mL [2] of the same molecule?
Answer: 77%

Question: And the inhibition at 25 µg/mL [3]?
Answer: 29%

Question: Which results are given for [N-]=[N+]=Nc1ccc(S(=O)(=O)Nc2ncccn2)cc1?
Answer: inhibition at 25 µg/mL [1]: 95%; inhibition at 25 µg/mL [2]: 85%; inhibition at 25 µg/mL [3]: 0%

Question: What does the source list for CC(=N/Nc1nc2ccccc2s1)/N=N/c1cccc(O)c1?
Answer: inhibition at 25 µg/mL [1]: 47%; inhibition at 25 µg/mL [2]: 0%; inhibition at 25 µg/mL [3]: 0%

Question: Which results are given for O=C(O)c1ccccc1N[C@H](c1ccccc1)c1ccc2cccnc2c1O?
Answer: inhibition at 25 µg/mL [1]: 93%; inhibition at 25 µg/mL [2]: 1%; inhibition at 25 µg/mL [3]: 25%

Question: For CCN(CC)CC[n+]1ccc2c(C)c3[nH]c4ccccc4c3c(C)c2c1, which inhibition at 25 µg/mL [1] is on record?
Answer: 98%

Question: What about the inhibition at 25 µg/mL [2] of the same molecule?
Answer: 0%

Question: And the inhibition at 25 µg/mL [3]?
Answer: 97%

Question: Which inhibition at 25 µg/mL [1] does the source give for O=C1Oc2ccccc2C(=O)/C1=C/Nc1ncc(-c2ccc(O)c(O)c2)s1 here?
Answer: 78%

Question: And the inhibition at 25 µg/mL [2]?
Answer: 0%

Question: What about the inhibition at 25 µg/mL [3] of the same molecule?
Answer: 90%

Question: Which results are given for Nc1ncnc2c1ncn2[C@@H]1O[C@H](COP(=O)(O)OS(=O)(=O)O)[C@@H](O)[C@H]1O [APS, adenylyl phosphosulfate]?
Answer: Km (APS kinase of E. coli): 0.25 µM; VmaxE0 [4]: 1.05 s⁻¹; VmaxE0 (two-fold decrease) [4]: 611 mM⁻¹ s⁻¹; apparent VmaxE0 [4]: 0.85 ± 0.04 s⁻¹

Question: Which “apparent VmaxE0” value [4] does the source give for Nc1ncnc2c1ncn2[C@@H]1O[C@H](COP(=O)(O)OP(=O)(O)OP(=O)(O)O)[C@@H](O)[C@H]1O [ATP] here?
Answer: 0.95 ± 0.03 s⁻¹

Question: What about the Km ([4]; read-out: apparent Km) of the same molecule?
Answer: 910 ± 100 µM
